Source: article PMC7168933, “Design, Synthesis and Biochemical Evaluation of Novel Ethanoanthracenes and Related Compounds to Target Burkitt’s Lymphoma” (Pharmaceuticals, 2020)
Read-outs that look alike come from different tables or passages of the source.

Columns and labels:
[1] = system: MUTU-1 Burkitt lymphoma cell line (EBV+); experiment: cells; conditions: Mutu-1, 24 h; for viability at 1 µM: read-out: MUTU-1 Cell Viability % 1 μM, 1 μM, 24 h; for viability at 10 µM: read-out: MUTU-1 Cell Viability % 10 μM, 10 μM, 24 h; for IC50: read-out: IC50 MUTU-I 24 h
[2] = system: DG-75 Burkitt lymphoma cell line (EBV−, chemoresistant); experiment: cells; conditions: Homo sapiens, DG-75, 48 h; for viability at 1 µM: read-out: DG-75 Cell Viability % 1 μM, 1 μM, 48 h; for viability at 10 µM: read-out: DG-75 Cell Viability % 10 μM, 10 μM, 48 h; for IC50: read-out: IC50 DG-75 48 h
[3] = system: DG-75 Burkitt lymphoma cell line (EBV−, chemoresistant); conditions: 48 h
[4] = system: MUTU-1 Burkitt's lymphoma cell line; experiment: FITC Annexin V/PI FACS analysis of apoptosis in MUTU-I cells; type: cell-based; conditions: 24 h
Description: (§1) BL cells DG-75 and MUTU-1 (750,000) were treated with the specified concentration of the selected compound and incubated for 24 h (MUTU-1) or 48 h (DG-75) with taxol as the positive control. Samples were harvested by centrifugation and the pellets were rinsed with 0.5 mL of Ca^2+ Annexin V binding buffer (0.1 M HEPES, pH 7.4; 1.4 M NaCl; 25 mM CaCl2) each and pelleted again by centrifugation. Supernatants were decanted and the pellets were suspended again in 50 µL FITC Annexin V (diluted 1:33 in Ca^2+ Annexin V binding buffer), the samples were then placed on ice and incubated for 10 min in the dark. After the incubation period 0.5 mL of Ca^2+ Annexin V binding buffer was added and samples were pelleted by centrifugation. The supernatant was decanted and the pellet was suspended in PI solution (500 µL; 0.5 µg/mL). After 1 h, the samples were recorded using a CyAn ADP flow cytometer (Beckman Coulter Inc., Brea, CA, USA). 10,000 cells were analysed with the Flowjo software package. Taxol was used as a positive control for cell death.

[5] = system: DG-75 Burkitt's lymphoma cell line; experiment: FITC Annexin V/PI FACS analysis of apoptosis in DG-75 cells; type: cell-based; conditions: 48 h
Description: as §1

[6] = system: MUTU-1 Burkitt lymphoma cell line (EBV+); conditions: 24 h
[7] = HPLC stability study in phosphate buffers; type: physicochemical
Description: The HPLC stability studies for compound 16a were performed using a Symmetry® column (C18, 5 µm, 4.6 × 150 mm), detector Waters 2487 Dual Wavelength Absorbance, HPLC pump: Waters 1525 binary and Autosampler: Waters 717 plus (Waters Corporation, Milford, MA, USA). Samples were detected at wavelength of 254 nm. The chromatography was performed with the following optimised conditions: mobile phase: (acetonitrile (80%): water (20%)), run time: 10 min, flow rate: 1 mL/min, with detection at 254 nm. Compound 16a (5 mg) was dissolved in the mobile phase (10 mL) to provide the stock solution for the experiment. The phosphate buffers were prepared following the British Pharmacopoeia monograph 2019 at the selected pH 4, pH 7.4 and pH 9. To a volume of the appropriate buffer (1 mL), stock solution (30 μL) was added, and the solution was shaken and then used immediately for the experiment. Samples of the solution were then analysed over the following 48 h period at selected time intervals (t = 0 min, 5 min, 30 min, 60 min, 90 min, 120 min, 24 h and 48 h).

| SMILES | viability at 1 µM [1] [%] | viability at 10 µM [1] [%] | viability at 1 µM [2] [%] | viability at 10 µM [2] [%] | DG-75 Cell Viability % 10 μM [3] [%] | melting point [°C] | IC50 [1] [nM] | IC50 [2] [nM] | apoptosis in DG-75 at 1 µM [5] [%] | apoptosis in DG-75 at 10 µM [5] [%] | DG-75 Cell Viability % 1 μM [3] [%] | cell viability in MUTU-I cell line (1 and 10 μM together or concentration not stated) [6] | apoptosis in MUTU-I at 0.5 µM [4] | apoptosis in MUTU-I at 1 µM [4] | apoptosis in MUTU-I at 10 µM [4] | further results |
| --- | --- | --- | --- | --- | --- | --- | --- | --- | --- | --- | --- | --- | --- | --- | --- | --- |
| N/N=C/C12c3ccccc3C(Cl)(c3ccccc31)C1C(=O)NC(=O)C12 (centres unmarked) [Compound 23i, (E)-9-Chloro-10-(hydrazonomethyl)-9,10-dihydro-9,10-[3,4]epipyrroloanthracene-12,14-dione] | 102 | 106 | 85.8 | 19 | 18.9 | 241 to 244 |  |  |  |  |  |  |  |  |  |  |
| N#C/C=C/C12c3ccccc3C(c3ccccc31)C1C(=O)NC(=O)C12 (centres unmarked) [Compound 23b, (E)-3-(12,14-Dioxo-9,10-[3,4]epipyrroloanthracen-9(10H)-yl)acrylonitrile] | 79.4 | 79 | 101 | 54 | 54.1 | 289 to 300 |  |  |  |  |  |  |  |  |  |  |
| O=C1C2C(C(=O)N1c1ccccc1)C1(/C=C/[N+](=O)[O-])c3ccccc3C2(Cl)c2ccccc21 (centres unmarked) [Compound 16d, (E)-9-Chloro-10-(2-nitrovinyl)-13-phenyl-9,10-dihydro-9,10-[3,4]epipyrroloanthracene-12,14-dione] | 0.77 | 0.41 | < 14 | 5.1 |  |  | 220 | 590 | 15 | 44 | 13.5 | 0.4–13.5% |  |  |  | apoptosis in MUTU-I at 0.2 µM [4]: 63%; cell viability in DG-75 cell line (1 and 10 μM together or concentration not stated) [3]: 0.4–13.5% |
| N#CC1CC2c3ccccc3C1(/C=C/[N+](=O)[O-])c1ccccc12 (centres unmarked) [Compound 19a, (E)-10-(2-Nitrovinyl)-9,10-dihydro-9,10-ethanoanthracene-11-carbonitrile] | 9 | 0 | 20.6 | 0 |  |  | 380 | 690 |  | 87 |  |  | > 90% |  |  |  |
| O=C1NC(=O)C2C1C1c3ccccc3C2(/C=C/[N+](=O)[O-])c2ccccc21 (centres unmarked) [Compound 13g, (E)-9-(2-Nitrovinyl)-9,10-dihydro-9,10-[3,4]epipyrroloanthracene-12,14-dione] | 0.47 | 7.2 | 1 | 11.7 |  | 176 to 178 |  |  |  |  | 1.1 |  |  |  |  |  |
| O=C1C2C3c4ccccc4C(C=C[N+](=O)[O-])(c4ccccc43)C2C(=O)N1c1ccccc1 (centres unmarked) [Compound 16a, (E)-9-(2-Nitrovinyl)-13-phenyl-9,10-dihydro-9,10-[3,4]epipyrroloanthracene-12,14-dione] | 10 | 1.4 |  | 1.1 |  |  | 210 | 710 |  | 92 | < 6 |  | over 80% | over 80% | over 80% | apoptosis in MUTU-I at 0.2 µM [4]: 46%; half-life at 14.6 µg/mL ([7]; pH 4 phosphate buffer, read-out: half-life (t½) at pH 4 (converted)): 660 min; half-life at 14.6 µg/mL ([7]; pH 7.4 phosphate buffer, read-out: half-life (t½) at pH 7.4 (converted)): 630 min; half-life at 14.6 µg/mL ([7]; pH 9 phosphate buffer, read-out: half-life (t½) at pH 9): > 1440 min; apoptosis in DG-75 at lower concentrations ([5]; concentrations lower than 10 µM): < 5%; MUTU-1 Cell Viability % 1 μM [6]: 10.3% |
| O=[N+]([O-])/C=C/c1c2ccccc2cc2ccccc12 [Compound 12a, (E)-9-(2-nitrovinyl)anthracene] | 81.9 |  | 94.6 | < 14 | 14.0 |  | 2570 | 2080 | 10 | 82 |  |  |  | little effect | 90% | MUTU-1 Cell Viability % 10 μM [6]: 5.9% |
| CC(=O)O[C@H]1C(=O)[C@@]2(C)[C@H]([C@H](OC(=O)c3ccccc3)[C@]3(O)C[C@H](OC(=O)[C@H](O)[C@@H](NC(=O)c4ccccc4)c4ccccc4)C(C)=C1C3(C)C)[C@]1(OC(C)=O)CO[C@@H]1C[C@@H]2O [Taxol, taxol, reference compound] | 30.4 | 10 | 48.8 | 10 | 9.9 |  | 320 | 1320 | 21 | 73 |  |  |  | 63% | 87% | MUTU-1 Cell Viability % 10 μM [6]: 9.8% |
| O=C1NC(=O)C2C1C1(Cl)c3ccccc3C2(C=C[N+](=O)[O-])c2ccccc21 (centres unmarked) [Compound 13j, (E)-9-Chloro-10-(2-nitrovinyl)-9,10-dihydro-9,10-[3,4]epipyrroloanthracene-12,14-dione] | < 1 | 0.62 | 12.1 | 5.9 |  |  | 250 | 780 |  | 90 |  | 0.4–13.5% | > 90% |  |  | cell viability in DG-75 cell line (1 and 10 μM together or concentration not stated) [3]: 0.4–13.5%; MUTU-1 Cell Viability % 1 μM [6]: 0.70% |
| C/C(=C\C12c3ccccc3C(c3ccccc31)C1C(=O)OC(=O)C12)[N+](=O)[O-] (centres unmarked) [Compound 13b, (E)-9-(2-Nitroprop-1-en-1-yl)-9,10-dihydro-9,10-[3,4]furanoanthracene-12,14-dione] | 11.7 | 7.2 | 1 | 0.47 |  | 256 to 258 |  |  |  |  | 1.1 | 7–24% |  |  |  |  |
